Here are results for one molecule from publication PMC11729425 (ACS Pharmacology & Translational Science, 2024).

Data set [1] in a line: 10-day food admix tolerability in mice (body weight, food intake, plasma AST, ALT, CK). Format: in vivo. Particulars: 10 days. The method, then: (A) Schematic representation of the de novo sphingolipid synthesis pathway. (B) Chemical structures of myriocin (MYR) and ALT-007. (C) Heatmap analysis comparing the effects of treatments with the indicated concentrations of MYR and ALT-007 on lipid species in C2C12 cells. N = 3 per group. Data are shown as log2 fold change. (D) Body weight curves of mice treated with ALT-007 or vehicle (4 mg/kg/d for 10 days, in the food). (E) Mean food consumption measurement throughout the treatment. (F) Plasma levels of aspartate transaminase (AST), (G) alanine transaminase (ALT) and (H) creatine kinase (CK) after 10 days of treatment with ALT-007 at 4 mg/kg/day. (I) Ceramide levels measured in the gastrocnemius muscle after 10 days of treatment. N = 8 per group. Quantitative data are expressed as median with min to max values. *P < 0.05, **P < 0.01, ***P < 0.001. ANOVA test was used for multiple comparison, and the Mann–Whitney U test when comparing 2 groups. All tests were 2 sided. Abbreviation: SPT, serine palmitoyltransferase; CK, creatine kinase; MYR, Myriocin; ns, nonsignificant.
Plasma parameters were assessed using samples diluted two times (at a 1:1 ratio of plasma to diluent) with the DimensionXpand Plus system from Siemens Healthcare Diagnostics. The biochemical tests were conducted in accordance with the manufacturer’s instructions for each specific parameter. These parameters included transaminase AST (DF41A), transaminase ALT (DF143) and creatine kinase (11097640), all provided by Siemens Healthcare.

In data set [2] the test system is Aged C57BL/6J mice. Nature of the data set: Grip strength. Format: in vivo, C57BL/6JRj mice. Particulars: 1 mg/kg in the food, week 8, 4 limbs, normalized to BW. The procedure:
Grip strength was evaluated using a grip strength test. Each mouse’s grip strength was measured using a pulldown grid assembly connected to a grip strength meter (Columbus Instruments). The mouse was pulled along a straight line parallel to the grip to determine peak force. The experiment was conducted three times, and the highest recorded value was considered for the analysis.

In data set [3] the test system is Aged C57BL/6J mice. Nature of the data set: Lean mass (echoMRI) and muscle weight at sacrifice in aged mice. Format: in vivo, C57BL/6JRj mice. The following applies: 1 mg/kg in the food. The method, then:
At the first and last (week 20) after experiment onset (as indicated in Figure 2A), body composition analysis was conducted. Each mouse was placed for short in an Echo-MRI (magnetic resonance imaging) machine, specifically the 3-in-1 model from Echo Medical Systems. This procedure recorded lean mass, along with total body weight, with each measurement taking approximately 1 min per individual.
Prior to sacrifice, mice were fasted for 4 h in the morning. Animals were sacrificed between 1:30 and 4 p.m. Mice were anesthetized with isoflurane, followed by a complete blood draw from the vena cava and perfusion with cold phosphate-buffered saline. Immediately thereafter, various tissues including liver, kidney, spleen, heart, brain, gastrocnemius muscle and tibialis anterior muscle were harvested, weighted and promptly flash-frozen in liquid nitrogen.

For another data set, the system named is N2 wild-type C. elegans. As to the kind of experiment: Lifespan measurements in C. elegans. Format: in vivo, Caenorhabditis elegans. The procedure: Lifespan assays were conducted at 20 °C unless otherwise noted. Synchronous populations were generated by hypochlorite treatment of gravid adults to obtain tightly synchronized embryos, which were then allowed to develop into adulthood under defined conditions. 20–25 worms were placed on NGM plates containing 5-FU seeded with E. coli OP50 bacteria. ALT-007 at a final concentration of 5 μM was added to the top of the plates diluted in DMSO, and DMSO was used at the same concentration as a control. Each condition included at least 170 animals per experiment.
The day of egg collection was designated as t = 0. Animals were transferred to fresh plates every 3 days and examined daily for touch-provoked movement and pharyngeal pumping, until death. Worms that died due to internal hatching of eggs, extruded gonads, or desiccation from crawling off the plate were censored accordingly. Each survival assay was repeated at least twice, and figures show representative results.
Survival curves were generated using the Kaplan–Meier product-limit method. The log-rank (Mantel–Cox) test was used to assess differences in survival and calculate P values. Statistical analyses and lifespan values were determined using GraphPad Prism 10 software. Complete lifespan statistics are presented in Supporting Information Table 1.

The test system of data set [4] is GMC101 and CL2120 amyloid beta expressing animals. As to the kind of experiment: Amyloid beta aggregation in C. elegans (Western blot). It is filed as in vivo, Caenorhabditis elegans. The method, then: Figure 5 ALT-007 increases lifespan, improves healthspan and reduces protein aggregation in C. elegans. (A) Median and maximal lifespan of […]. elegans animals treated with ALT-007 or vehicle (5 μM). N = 2 biological replicates with at least 170 animals per group. (B) Paralysis and movement analysis of amyloid beta (Ab)-expressing animals treated with ALT-007 or vehicle (1 μM) at day 1 of adulthood. N = 2 biological replicates with at least 50 animals per group. (C) Amyloid aggregation upon ALT-007 treatment and DMSO as a control in GMC101 and CL2120 amyloid beta expressing animals and their respective controls. N = 3 biological replicates with at least 100 animals per group. (D) Quantification of amyloid beta (Ab) levels upon ALT-007 treatment. The log-rank (Mantel-Cox) test was used to evaluate differences between survival curves as indicated in Supplementary Table 1. two-tailed t-test was performed for two-group analysis and one-way analysis of variance (ANOVA) for three-group analysis. Sample preparation: Synchronized animal populations were collected and washed in M9 buffer. […] Protein samples were analyzed by Tricine-SDS-polyacrylamide gel electrophoresis (SDS-PAGE) and transferred to nitrocellulose membrane. Proteins were detected using the following antibodies under the manufacturer's conditions: antiβ-actin (Sigma) and antiAmyloid-beta, 1-16 (6E10) (BioLegend).
Background: In western blotting, separated proteins are transferred to a membrane and probed.

Details of data set [5]: method as in PMID 29669694. Particulars: compared to Myriocin; cited from earlier work.
Details of data set [6]: method as in PMID 29669694. Particulars: compared to Myriocin; cited from earlier work. The source holds these as a separate data set.
On the set-up of data set [7]: method as in PMID 29669694. The following applies: cited from earlier work.
Setting [8] is: 4 mg/kg/d in the food, vs DMSO control mice.

For `COc1cc(C(=O)N2CC[C@H](NC(=O)c3ccccc3OC(F)(F)F)c3c2cnn3C(C)C)cnc1OC` [ALT-007], in data set [1] (setting [8]), the body weight entry is listed as “no differences” and the food intake result is on record as “no differences”. Moreover, in data set [1] (4 mg/kg/day), the “hepatic toxicity by plasma transaminase (AST, ALT) levels” value was “neither hepatic nor muscle toxicity was identified” and the “muscle toxicity by plasma creatine kinase (CK) levels” value is recorded as “neither hepatic nor muscle toxicity was identified”. Also, the grip strength entry in the data set with Aged C57BL/6J mice [2] is reported as “increased compared to aged control mice”. In the data set on Aged C57BL/6J mice [3] (after 11 weeks), the “lean mass measured by echoMRI” value was “increased lean mass”. In addition, the “muscle weight (gastrocnemius, tibialis anterior)” value with Aged C57BL/6J mice [3] (at sacrifice after 20 weeks) is on record as “increased muscle weight”. In the data set on N2 wild-type C. elegans (C. elegans, administration at the embryo stage), the “toxicity for animal development” value is given as “nontoxic for animal development”. In the data set on N2 wild-type C. elegans (N2 wild-type, 5 μM, 20 °C), the maximal lifespan result is recorded as “significantly increased” and the median lifespan result is recorded as “significantly increased”. Moreover, the amyloid beta aggregation result in data set [4] (CL2120 strain (CL2122 as a control)) is given as “reduce aggregation”. Also, the amyloid beta aggregates result in data set [4] (GMC101 worms) is “reducing amyloid beta aggregates”. In addition, the metabolic stability result in data set [5] was “improved”. For the same molecule, the permeability entry in data set [6] is reported as “improved”. For the same molecule, the oral bioavailability entry in data set [7] is given as “orally bioavailable”. In data set [7] (rodents), the “toxicity in long-term dosing” value was “non-toxic in long-term dosing in rodents”.
